Assay results: ChEMBL document CHEMBL5257079, “Discovery of FXR/PPARγ dual partial agonist” (Bioorg Med Chem, 2023); call rule not given here

Columns and labels:
Bile acid receptor [1] = biological target: T1, Bile acid receptor (Homo sapiens, UniProt Q96RI1); experiment: Partial agonist activity at FXR-LBD-GST (unknown origin) by TR-FRET assay
T1 sequence (Q96RI1 whole entry): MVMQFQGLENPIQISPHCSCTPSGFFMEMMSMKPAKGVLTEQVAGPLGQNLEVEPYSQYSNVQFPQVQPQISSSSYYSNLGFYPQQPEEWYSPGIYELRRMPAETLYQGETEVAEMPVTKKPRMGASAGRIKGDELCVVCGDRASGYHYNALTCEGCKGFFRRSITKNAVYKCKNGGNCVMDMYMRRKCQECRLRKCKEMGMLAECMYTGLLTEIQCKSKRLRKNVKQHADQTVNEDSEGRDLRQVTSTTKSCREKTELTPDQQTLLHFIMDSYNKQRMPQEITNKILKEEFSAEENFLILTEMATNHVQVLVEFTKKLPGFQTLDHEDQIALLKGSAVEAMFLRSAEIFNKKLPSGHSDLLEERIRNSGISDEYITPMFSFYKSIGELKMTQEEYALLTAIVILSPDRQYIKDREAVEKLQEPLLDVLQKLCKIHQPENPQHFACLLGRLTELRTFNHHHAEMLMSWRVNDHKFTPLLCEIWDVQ

[2] = Metabolic stability in mouse liver microsomes assessed as parent compound remaining after 30 mins; assay type: ADME, Microsome; details: read-out: Stability
Bile acid receptor [3] = biological target: T1, Bile acid receptor; experiment: Antagonist activity at FXR-LBD-GST (unknown origin) in presence of GW4064
[4] = Metabolic stability in mouse liver microsomes assessed as half life; assay type: ADME, Microsome
Bile acid receptor [5] = biological target: T1, Bile acid receptor; experiment: Partial agonist activity at human FXR expressed in Huh-7 cells in presence of CDCA by luciferase reporter gene assay; assay type: cell-based
[6] = biological target: T2, Bile acid receptor (Homo sapiens) (UniProt Q96RI1); experiment: Partial agonist activity at human FXR expressed in Huh-7 cells in presence of CDCA by luciferase reporter gene assay relative to GW4064; assay type: cell-based
T2 sequence (whole entry): T1 sequence (Q96RI1 whole entry)

| SMILES | EC50 (Bile acid receptor [1]) | EC50 (Bile acid receptor [1]; read-out: EC50) | further results |
| --- | --- | --- | --- |
| CC(C)(C)c1ccc(C(=O)Nc2cccc3c2ncn3-c2ccc(C(=O)O)cc2)cc1 | Not Active | – | – |
| CC(C)(C)c1ccc(C(=O)Nc2cccc3c2ncn3Cc2ccc(C(=O)O)cc2)cc1 | Not Active | – | – |
| CC(C)(C)c1ccc(-n2cnc3c(-c4ccc(C(=O)O)cc4)cccc32)cc1 | – | 510 nM | remaining at 0.5 h [2]: 36.9%; IC50 (Bile acid receptor [3]): 9.9 µM; half-life [4]: 25 min |
| CC(C)(C)c1ccc(Cn2cnc3c(-c4ccc(C(=O)O)cc4)cccc32)cc1 | – | 140 nM | – |
| CC(C)(C)c1ccc(-n2cnc3c(NC(=O)c4ccc(C(=O)O)cc4)cccc32)cc1 | – | 490 nM | remaining at 0.5 h [2]: 37.9%; half-life [4]: 24.6 min |
| CC(C)(C)c1ccc(-c2nc3ccccc3n2Cc2ccc(C(=O)O)cc2)cc1 | Not Active | – | – |
| CC(C)(C)c1ccc(Cn2cnc3cc(C(=O)Nc4ccc(C(=O)O)cc4)ccc32)cc1 | Not Active | – | – |
| CC(C)(C)c1ccc(-c2cccc3c2ncn3Cc2ccc(C(=O)O)cc2)cc1 | – | 760 nM | – |
| CC(C)(C)c1ccc(NC(=O)c2ccc3c(c2)ncn3Cc2ccc(C(=O)O)cc2)cc1 | Not Active | – | – |
| CC(C)(C)c1ccc(Cn2cnc3c(NC(=O)Cc4ccc(C(=O)O)cc4)cccc32)cc1 | – | 410 nM | – |
| CC(C)(C)c1ccc(Cn2cnc3ccc(C(=O)Nc4ccc(C(=O)O)cc4)cc32)cc1 | Not Active | – | – |
| CC(C)(C)c1ccc(Cn2c(-c3ccc(C(=O)O)cc3)nc3ccccc32)cc1 | Not Active | – | – |
| CC(C)(C)c1ccc(Cn2cnc3c(NC(=O)c4ccc(C(=O)O)cc4)cccc32)cc1 | – | 140 nM | EC50 (Bile acid receptor [5]): 2200 nM; Activity [6]: 6% |
| CC(C)(C)c1ccc(NC(=O)c2ccc3ncn(Cc4ccc(C(=O)O)cc4)c3c2)cc1 | Not Active | – | – |
| CC(C)(C)c1ccc(-c2cccc3c2ncn3-c2ccc(C(=O)O)cc2)cc1 | Not Active | – | – |
